The record followed here is patent publication US8530648B2, “Diaza-spiro[5.5]undecanes” (Novartis AG, priority 2009, dated 2013).

One test concerns the target hOx1R (Homo sapiens (Human), UniProt O43613). Nature of the test: Calcium accumulation in cells (FLIPR), hOx1R. The format is cell-based. As to conditions: for Ki: inhibition of orexin A induced calcium accumulation, Cheng and Prusoff correction; for inhibition at 10 µM: measured at a concentration of 10 μM of compound. Here is the method: (§1) Calcium Accumulation in Cells (FLIPR):
(§2) Cells expressing human orexin 1 or human orexin 2 receptors, were seeded at 8,000 cells/well in 384 well black-walled clear bottom, poly-D-lysine coated plates. After 24 h, the medium was removed and cells were washed once with phosphate buffered saline and serum-deprived overnight in assay buffer (130 mM NaCl, 5.4 mM KCl, 1.8 mM CaCl2, 0.8 mM MgSO4, 0.9 mM NaH2PO4, 25 mM glucose, 20 mM HEPES, pH 7.4) containing bovine serum albumin (1% w/v).
(§3) On the day of the experiment, the cells seeded in black plates were treated with assay buffer containing the Ca^2+ sensitive fluorescent dye Fluo-4-AM (2 μM), and probenecid (0.1 mM). After 1 h plates were washed twice with, and resuspended in, assay buffer containing probenecid (0.1 mM) using a multi plate washer. […] Fluorescence measurements were then continued every 1 S for 120 S followed by every 4 S for 240 S.
(§4) The measurements were typically made in two sequences:
(§5) Compounds of formula I were tested usually in a concentration range from 10^−9 M to 10^−5 M.
(§6) In the second round, performed one hour later (to allow for equilibration), Orexin A was tested either in the absence (calibration curves, Orexin A agonist controls) or in the presence of compounds of formula I to determine antagonism.

Another test addresses hOx2R (Homo sapiens (Human), UniProt O43614). Description: Calcium accumulation in cells (FLIPR), hOx2R. Format: cell-based. The conditions noted are these: for Ki: inhibition of orexin A induced calcium accumulation, Cheng and Prusoff correction; for inhibition at 10 µM: measured at a concentration of 10 μM of compound. On the procedure:
as §1, §2, §3, §4, §5, §6

Usually Ki stands for the dissociation constant of the complex between target and ligand, obtained from inhibition or displacement. Broadly, the inhibition is how much of the control response was suppressed.

Chain of hOx1R (O43613 whole entry): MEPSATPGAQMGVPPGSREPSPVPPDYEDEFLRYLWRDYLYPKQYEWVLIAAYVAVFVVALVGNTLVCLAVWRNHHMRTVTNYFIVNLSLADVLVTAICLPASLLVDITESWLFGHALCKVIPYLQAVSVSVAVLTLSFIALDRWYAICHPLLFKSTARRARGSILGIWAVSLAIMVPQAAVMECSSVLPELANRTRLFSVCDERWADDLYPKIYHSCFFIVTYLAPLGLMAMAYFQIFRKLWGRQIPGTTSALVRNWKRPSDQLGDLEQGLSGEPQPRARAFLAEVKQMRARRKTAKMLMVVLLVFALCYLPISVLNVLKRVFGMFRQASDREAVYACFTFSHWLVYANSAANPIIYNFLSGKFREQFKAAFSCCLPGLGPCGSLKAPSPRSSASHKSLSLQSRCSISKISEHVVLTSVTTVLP
Chain of hOx2R (O43614 whole entry): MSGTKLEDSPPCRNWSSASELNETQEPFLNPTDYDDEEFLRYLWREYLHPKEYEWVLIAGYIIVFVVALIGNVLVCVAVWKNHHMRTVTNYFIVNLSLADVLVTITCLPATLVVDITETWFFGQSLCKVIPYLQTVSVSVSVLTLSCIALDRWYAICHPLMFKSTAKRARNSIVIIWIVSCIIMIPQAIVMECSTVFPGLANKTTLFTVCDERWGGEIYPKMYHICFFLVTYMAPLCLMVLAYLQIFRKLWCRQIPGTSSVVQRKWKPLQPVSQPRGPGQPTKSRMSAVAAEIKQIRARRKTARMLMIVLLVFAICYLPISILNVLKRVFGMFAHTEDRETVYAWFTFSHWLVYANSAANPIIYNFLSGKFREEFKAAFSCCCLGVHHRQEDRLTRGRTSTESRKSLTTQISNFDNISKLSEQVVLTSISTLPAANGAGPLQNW

For `O=C1N(Cc2noc3ccccc23)CCCC12CCN(c1cnc3ccccc3n1)CC2` [Example 36, 2-(benzo[d]isoxazol-3-ylmethyl)-9-(quinoxalin-2-yl)-2,9-diazaspiro[5.5]undecan-1-one], the Ki on hOx1R came out at 591 nM; on hOx2R, 197 nM.
Take `Cn1c(CN2CCCC3(CCN(c4cnc5ccccc5n4)CC3)C2=O)nc2ccccc21` [Example 30, 2-((1-methyl-1H-benzo[d]imidazol-2-yl)methyl)-9-(quinoxalin-2-yl)-2,9-diazaspiro[5.5]undecan-1-one]: the inhibition at 10 µM on hOx1R was 17%; at hOx2R, 33%.
For `Cc1[nH]c2ccccc2c1CN1CCCC2(CCN(c3cnc4ccccc4n3)CC2)C1=O` [Example 133, 2-((2-methyl-1H-indol-3-yl)methyl)-9-(quinoxalin-2-yl)-2,9-diazaspiro[5.5]undecan-1-one], the Ki was determined as 1150 nM on hOx1R and 244 nM at hOx2R.
Take `Cc1cccc(-c2sc(C)nc2CN2CCCC3(CCN(c4cnc5ccccc5n4)CC3)C2=O)c1` [Example 69, 2-((2-methyl-5-m-tolylthiazol-4-yl)methyl)-9-(quinoxalin-2-yl)-2,9-diazaspiro[5.5]undecan-1-one]: the Ki came to 1110 nM on hOx1R and 163 nM on hOx2R.
In the case of `Cc1ccc2nc(N3CCC4(CCCN(Cc5c[nH]c6ccccc56)C4=O)CC3)sc2c1` [Example 153, 2-((1H-indol-3-yl)methyl)-9-(6-methylbenzo[d]thiazol-2-yl)-2,9-diazaspiro[5.5]undecan-1-one], the inhibition at 10 µM is 22% on hOx1R and 35% at hOx2R.
For the compound `N#Cc1cc(CN2CCCC3(CCN(c4cnc5ccccc5n4)CC3)C2=O)ccc1F` [Example 94, 2-fluoro-5-((1-oxo-9-(quinoxalin-2-yl)-2,9-diazaspiro[5.5]undecan-2-yl)methyl)benzonitrile], the Ki worked out at 1700 nM on hOx1R and 282 nM at hOx2R.
Take `Cc1cc(C)n(-c2ccccc2CN2CCCC3(CCN(c4cnc5ccccc5n4)CC3)C2=O)n1` [Example 115, 2-(2-(3,5-dimethyl-1H-pyrazol-1-yl)benzyl)-9-(quinoxalin-2-yl)-2,9-diazaspiro[5.5]undecan-1-one]: the inhibition at 10 µM on hOx1R turned out to be 57%. For the same compound, the Ki on hOx2R was found to be 1200 nM.
For the compound `COc1ccnc(CN2CCCC3(CCN(c4cnc5ccccc5n4)CC3)C2=O)c1OC` [Example 91, 2-((3,4-dimethoxypyridin-2-yl)methyl)-9-(quinoxalin-2-yl)-2,9-diazaspiro[5.5]undecan-1-one], the Ki at hOx1R came out at 2870 nM. Moreover, at hOx2R, the inhibition at 10 µM turned out to be 38%.
Take `O=C1N(Cc2ccc3[nH]ccc3c2)CCCC12CCN(c1cnc3ccccc3n1)CC2` [Example 123, 2-((1H-indol-5-yl)methyl)-9-(quinoxalin-2-yl)-2,9-diazaspiro[5.5]undecan-1-one]: the inhibition at 10 µM on hOx1R was 11%; on hOx2R it was 24%.
With `COc1cccc(CN2CCCC3(CCN(c4cnc5ccccc5n4)CC3)C2=O)c1F` [Example 102, 2-(2-fluoro-3-methoxybenzyl)-9-(quinoxalin-2-yl)-2,9-diazaspiro[5.5]undecan-1-one], the figures for the Ki on hOx1R and on hOx2R were 2430 nM and 225 nM, respectively.
For the compound `Cc1cc(CN2CCCC3(CCN(c4cnc5ccccc5n4)CC3)C2=O)c2ccccc2n1` [Example 33, 2-((2-methylquinolin-4-yl)methyl)-9-(quinoxalin-2-yl)-2,9-diazaspiro[5.5]undecan-1-one], the figures for the Ki on hOx1R and on hOx2R were 2360 nM and 282 nM, respectively.
Turning to `Cc1ccccc1CN1CCCC2(CCN(c3cnc4ccccc4n3)CC2)C1=O` [Example 19, 2-(2-methylbenzyl)-9-(quinoxalin-2-yl)-2,9-diazaspiro[5.5]undecan-1-one], the inhibition at 10 µM at hOx1R is 12%. The Ki on hOx2R was 495 nM.
Take `O=C1N(Cc2ccccc2-n2cccn2)CCCC12CCN(c1cnc3ccccc3n1)CC2` [Example 85, 2-(2-(1H-pyrazol-1-yl)benzyl)-9-(quinoxalin-2-yl)-2,9-diazaspiro[5.5]undecan-1-one]: the inhibition at 10 µM at hOx1R was 15%. For the same compound, the Ki on hOx2R is 822 nM.
Regarding `O=C1N(Cc2noc(C3CCC3)n2)CCCC12CCN(c1cnc3ccccc3n1)CC2` [Example 89, 2-((5-cyclobutyl-1,2,4-oxadiazol-3-yl)methyl)-9-(quinoxalin-2-yl)-2,9-diazaspiro[5.5]undecan-1-one], the values for the inhibition at 10 µM at hOx1R and at hOx2R were 29% and 24%, respectively.
As to `O=C1N(Cc2cnc3ccccn23)CCCC12CCN(c1cnc3ccccc3n1)CC2` [Example 70, 2-(imidazo[1,2-a]pyridin-3-ylmethyl)-9-(quinoxalin-2-yl)-2,9-diazaspiro[5.5]undecan-1-one], the Ki at hOx1R was 3420 nM; on hOx2R, 258 nM.
Regarding `O=C1N(Cc2ccc(-n3cncn3)cc2)CCCC12CCN(c1cnc3ccccc3n1)CC2` [Example 81, 2-(4-(1H-1,2,4-triazol-1-yl)benzyl)-9-(quinoxalin-2-yl)-2,9-diazaspiro[5.5]undecan-1-one], the inhibition at 10 µM on hOx1R was determined as 13%. For the same compound, the inhibitory constant (Ki) on hOx2R was determined as 1580 nM.
As for `O=C1N(Cc2c[nH]c3ccccc23)CCCC12CCN(c1nnc(-c3ccccc3)s1)CC2` [Example 171, 2-((1H-indol-3-yl)methyl)-9-(5-phenyl-1,3,4-thiadiazol-2-yl)-2,9-diazaspiro[5.5]undecan-1-one], the Ki is 2480 nM at hOx1R and 786 nM on hOx2R.
As for `COc1ccccc1-n1ccnc1CN1CCCC2(CCN(c3cnc4ccccc4n3)CC2)C1=O` [Example 112, 2-((1-(2-methoxyphenyl)-1H-imidazol-2-yl)methyl)-9-(quinoxalin-2-yl)-2,9-diazaspiro[5.5]undecan-1-one], the inhibition constant Ki was determined as 3520 nM on hOx1R and 1600 nM on hOx2R.
For the compound `O=C1N(Cc2ccc3nonc3c2)CCCC12CCN(c1cnc3ccccc3n1)CC2` [Example 53, 2-(benzo[c][1,2,5]oxadiazol-5-ylmethyl)-9-(quinoxalin-2-yl)-2,9-diazaspiro[5.5]undecan-1-one], the inhibition at 10 µM at hOx1R was 37%; on hOx2R, 24%.
As to `O=C1N(Cc2c[nH]c3ccccc23)CCCC12CCN(c1nc3ccccc3s1)CC2` [Example 52, 2-((1H-indol-3-yl)methyl)-9-(benzo[d]thiazol-2-yl)-2,9-diazaspiro[5.5]undecan-1-one], the Ki was determined as 1360 nM at hOx1R and 178 nM on hOx2R.
In the case of `O=C1N(Cc2cccc(Cl)c2)CCCC12CCN(c1nccc(-c3ccccc3)n1)CC2` [Example 29, 2-(3-chlorobenzyl)-9-(4-phenylpyrimidin-2-yl)-2,9-diazaspiro[5.5]undecan-1-one], the results for the Ki at hOx1R and on hOx2R were 1700 nM and 614 nM, respectively.
For `N#Cc1ccccc1CN1CCCC2(CCN(c3cnc4ccccc4n3)CC2)C1=O` [Example 124, 2-((1-oxo-9-(quinoxalin-2-yl)-2,9-diazaspiro[5.5]undecan-2-yl)methyl)benzonitrile], the Ki worked out at 932 nM at hOx1R and 140 nM on hOx2R.
In the case of `COc1cccc(CN2CCCC3(CCN(c4cnc5ccccc5n4)CC3)C2=O)c1OC` [Example 18, 2-(2,3-dimethoxybenzyl)-9-(quinoxalin-2-yl)-2,9-diazaspiro[5.5]undecan-1-one], the inhibition at 10 µM on hOx1R was determined as 3%. The Ki on hOx2R worked out at 782 nM.
For the compound `CN1CCc2c(CN3CCCC4(CCN(c5cnc6ccccc6n5)CC4)C3=O)cccc21` [Example 145, 2-((1-methylindolin-4-yl)methyl)-9-(quinoxalin-2-yl)-2,9-diazaspiro[5.5]undecan-1-one], the Ki at hOx2R was determined as 636 nM.
